Active and inactive are the calls of the source. The rule behind the calls is not given here.
Assays:
[1] = Drug level in Wistar rat brain at 10 mg/kg, po after 1 hr; format: ADME, organism-based; parameters: dose 10 mg/kg, route oral; settings: read-out: Drug uptake
[2] = Half life in BALB/c mouse at 1 mg/kg, iv and 10 mg/kg, po; format: ADME, organism-based; settings: in vivo
[3] = Permeability from basolateral to apical side of human Caco-2 cells; format: ADME, cell-based; settings: read-out: permeability
[4] = target: T1, Voltage-gated inwardly rectifying potassium channel KCNH2 (Homo sapiens, UniProt Q12809); experiment: Displacement of radiolabeled astemizole from human ERG
[5] = Plasma concentration in Wistar rat at 10 mg/kg, po after 1 hr; format: ADME, organism-based; parameters: dose 10 mg/kg, route oral; settings: read-out: Drug uptake
[6] = Volume of distribution at steady state in BALB/c mouse at 1 mg/kg, iv and 10 mg/kg, po; format: ADME, organism-based; settings: in vivo, read-out: Vdss
[7] = Half life in Beagle dog at 1 mg/kg, iv and 5 mg/kg, po; format: ADME, organism-based, Canis lupus familiaris; settings: in vivo
[8] = Volume of distribution at steady state in Sprague-Dawley rat at 1 mg/kg, iv and 10 mg/kg, po; format: ADME, organism-based; settings: in vivo, read-out: Vdss
[9] = target: Cytochrome P450 2D6 (Homo sapiens, UniProt P10635); experiment: Inhibition of CYP2D6 at 10 uM; format: ADME
[10] = Volume of distribution at steady state in Beagle dog at 1 mg/kg, iv and 5 mg/kg, po; format: ADME, organism-based, Canis lupus familiaris; settings: in vivo, read-out: Vdss
[11] = Solubility in simulated gastric fluid; format: physicochemical
[12] = Bioavailability in Sprague-Dawley rat at 1 mg/kg, iv and 10 mg/kg, po; format: ADME, organism-based; settings: in vivo
[13] = Bioavailability in Beagle dog at 1 mg/kg, iv and 5 mg/kg, po; format: ADME, organism-based, Canis lupus familiaris; settings: in vivo
[14] = test system: Rattus norvegicus; experiment: Ex vivo receptor occupancy of histamine H3 receptor in Wistar rat brain at 1 mg/kg, po after 60 mins by [3H]R-alpha-methylhistamine bingind autoradiography; format: functional
[15] = target: T2, Histamine H3 receptor (Homo sapiens, UniProt Q9Y5N1); experiment: Displacement of [125I]-iodoproxyfan from human recombinant histamine H3 receptor expressed in human SK-N-MC cells after 1 hr by scintillation counting; format: cell-based
[16] = target: hERG (KCNH2) (Homo sapiens, UniProt Q12809); experiment: Displacement of radiolabeled astemizole from human ERG at 10 uM; settings: probe radiolabeled astemizole
[17] = test system: Rattus norvegicus; experiment: Ex vivo receptor occupancy of histamine H3 receptor in Wistar rat brain at 10 mg/kg, po after 1 hr by autoradiography; format: functional
[18] = Clearance in Sprague-Dawley rat at 1 mg/kg, iv and 10 mg/kg, po; format: ADME, organism-based; settings: in vivo
[19] = Permeability from apical to basolateral side of human Caco-2 cells; format: ADME, cell-based; settings: read-out: permeability
[20] = Clearance in Beagle dog at 1 mg/kg, iv and 5 mg/kg, po; format: ADME, organism-based, Canis lupus familiaris; settings: in vivo
[21] = test system: Rattus norvegicus; experiment: Increase of histamine release in rat frontal cortex at 3 to 30 mg/kg, po measured up to 180 mins; format: functional, organism-based
[22] = target: T2, Histamine H3 receptor; experiment: Antagonist activity at human histamine H3 receptor expressed in human SK-N-MC cells assessed as inhibition of forskolin-induced cAMP accumulation after 6 hrs; format: functional, cell-based; settings: read-out: pA2 (converted)
[23] = test system: Rattus norvegicus; experiment: Increase of wake duration in rat at 30 mg/kg, s.c.
[24] = Plasma concentration in Wistar rat at 1 mg/kg, po after 60 mins; format: ADME, organism-based; parameters: dose 1 mg/kg, route oral; settings: read-out: Drug uptake
[25] = Metabolic stability in human liver microsomes assessed as compound remaining after 30 mins; format: ADME, Microsome; settings: read-out: Stability
[26] = Half life in Sprague-Dawley rat at 1 mg/kg, iv and 10 mg/kg, po; format: ADME, organism-based; settings: in vivo
[27] = target: Cytochrome P450 3A4 (Homo sapiens, UniProt P08684); experiment: Inhibition of CYP3A4 at 10 uM; format: ADME
[28] = target: T1, Voltage-gated inwardly rectifying potassium channel KCNH2; experiment: Inhibition of human ERG by patch clamp technique
[29] = Bioavailability in BALB/c mouse at 1 mg/kg, iv and 10 mg/kg, po; format: ADME, organism-based; settings: in vivo
[30] = Solubility in water; format: physicochemical
[31] = Metabolic stability in rat liver microsomes assessed as compound remaining after 30 mins; format: ADME, Microsome; settings: read-out: Stability
[32] = Clearance in BALB/c mouse at 1 mg/kg, iv and 10 mg/kg, po; format: ADME, organism-based; settings: in vivo
[33] = Fraction unbound in rat plasma; format: ADME, cell-free
[34] = target: T3, Histamine H3 receptor (Rattus norvegicus, UniProt Q9QYN8); experiment: Binding affinity to histamine H3 receptor in rat brain; format: tissue-based
[35] = target: T3, Histamine H3 receptor; experiment: Antagonist activity at rat histamine H3 receptor expressed in human SK-N-MC cells assessed as inhibition of forskolin-induced cAMP accumulation after 6 hrs; format: functional, cell-based; settings: read-out: pA2 (converted)
[36] = target: Cytochrome P450 2C9 (Homo sapiens, UniProt P11712); experiment: Inhibition of CYP2C9 at 10 uM; format: ADME
[37] = test system: Rattus norvegicus; experiment: Increase of wake duration in rat at 10 mg/kg, sc; format: functional, organism-based; parameters: dose 10 mg/kg
[38] = test system: Brain; experiment: Drug level in rat brain at 3 mg/kg, sc; format: ADME, organism-based; parameters: dose 3 mg/kg, route subcutaneous; settings: in vivo, read-out: Drug uptake
[39] = test system: Rattus norvegicus; experiment: Increase of histamine release in rat frontal cortex at 0.3 to 3 mg/kg, sc measured up to 300 mins; format: functional, organism-based
[40] = test system: Rattus norvegicus; experiment: Increase of wake duration in rat at 10 mg/kg, s.c.
[41] = test system: Rattus norvegicus; experiment: Ex vivo receptor occupancy of histamine H3 receptor in Wistar rat brain at 3 mg/kg, po after 30 mins by [3H]R-alpha-methylhistamine bingind autoradiography; format: functional
[42] = test system: Plasma; experiment: Plasma concentration in rat at 3 mg/kg, sc; format: ADME, organism-based; parameters: dose 3 mg/kg, route subcutaneous; settings: in vivo, read-out: Drug uptake
[43] = Plasma concentration in Wistar rat at 3 mg/kg, po after 30 mins; format: ADME, organism-based; parameters: dose 3 mg/kg, route oral; settings: read-out: Drug uptake

T1 sequence (Q12809 whole entry): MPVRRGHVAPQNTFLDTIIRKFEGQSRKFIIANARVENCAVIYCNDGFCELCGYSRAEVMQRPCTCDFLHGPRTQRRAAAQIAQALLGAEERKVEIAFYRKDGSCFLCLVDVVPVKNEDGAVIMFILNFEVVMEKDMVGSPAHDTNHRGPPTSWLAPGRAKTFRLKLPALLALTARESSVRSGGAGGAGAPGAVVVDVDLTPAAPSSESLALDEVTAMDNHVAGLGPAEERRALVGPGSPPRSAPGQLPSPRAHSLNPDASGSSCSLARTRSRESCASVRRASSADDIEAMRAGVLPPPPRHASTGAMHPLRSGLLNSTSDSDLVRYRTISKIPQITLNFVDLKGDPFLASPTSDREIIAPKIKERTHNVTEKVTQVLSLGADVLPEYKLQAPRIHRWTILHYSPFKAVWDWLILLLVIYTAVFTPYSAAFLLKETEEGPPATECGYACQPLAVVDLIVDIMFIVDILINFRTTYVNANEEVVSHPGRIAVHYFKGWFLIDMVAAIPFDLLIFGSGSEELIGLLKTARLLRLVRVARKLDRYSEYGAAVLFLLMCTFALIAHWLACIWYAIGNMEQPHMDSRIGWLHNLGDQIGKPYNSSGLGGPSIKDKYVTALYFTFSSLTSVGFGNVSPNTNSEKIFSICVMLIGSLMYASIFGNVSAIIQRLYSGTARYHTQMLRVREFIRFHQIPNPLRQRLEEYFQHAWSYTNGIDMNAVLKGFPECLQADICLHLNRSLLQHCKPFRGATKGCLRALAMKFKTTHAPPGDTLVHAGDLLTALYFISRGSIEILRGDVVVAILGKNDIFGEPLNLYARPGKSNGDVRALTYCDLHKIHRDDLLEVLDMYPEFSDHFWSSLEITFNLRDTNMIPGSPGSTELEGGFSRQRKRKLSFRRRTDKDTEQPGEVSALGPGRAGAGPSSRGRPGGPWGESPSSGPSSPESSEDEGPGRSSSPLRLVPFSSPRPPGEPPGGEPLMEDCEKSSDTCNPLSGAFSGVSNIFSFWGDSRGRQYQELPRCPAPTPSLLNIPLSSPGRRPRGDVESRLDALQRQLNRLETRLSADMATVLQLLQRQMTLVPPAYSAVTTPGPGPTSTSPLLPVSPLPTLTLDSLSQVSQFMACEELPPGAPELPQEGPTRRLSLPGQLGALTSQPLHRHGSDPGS
T3 sequence (Q9QYN8 whole entry): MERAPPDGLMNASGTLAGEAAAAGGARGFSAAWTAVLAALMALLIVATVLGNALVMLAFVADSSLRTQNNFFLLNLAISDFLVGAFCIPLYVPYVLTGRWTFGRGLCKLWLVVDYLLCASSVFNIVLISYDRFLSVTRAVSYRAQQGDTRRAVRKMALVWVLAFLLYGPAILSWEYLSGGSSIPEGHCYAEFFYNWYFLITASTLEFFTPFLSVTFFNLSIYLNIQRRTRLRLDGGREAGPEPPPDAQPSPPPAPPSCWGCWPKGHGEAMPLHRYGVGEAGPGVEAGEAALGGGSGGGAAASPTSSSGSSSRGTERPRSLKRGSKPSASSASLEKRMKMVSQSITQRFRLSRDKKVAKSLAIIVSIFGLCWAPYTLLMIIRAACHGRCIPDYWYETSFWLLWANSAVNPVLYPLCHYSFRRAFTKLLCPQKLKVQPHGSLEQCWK
Chain of Cytochrome P450 2D6 (P10635 whole entry): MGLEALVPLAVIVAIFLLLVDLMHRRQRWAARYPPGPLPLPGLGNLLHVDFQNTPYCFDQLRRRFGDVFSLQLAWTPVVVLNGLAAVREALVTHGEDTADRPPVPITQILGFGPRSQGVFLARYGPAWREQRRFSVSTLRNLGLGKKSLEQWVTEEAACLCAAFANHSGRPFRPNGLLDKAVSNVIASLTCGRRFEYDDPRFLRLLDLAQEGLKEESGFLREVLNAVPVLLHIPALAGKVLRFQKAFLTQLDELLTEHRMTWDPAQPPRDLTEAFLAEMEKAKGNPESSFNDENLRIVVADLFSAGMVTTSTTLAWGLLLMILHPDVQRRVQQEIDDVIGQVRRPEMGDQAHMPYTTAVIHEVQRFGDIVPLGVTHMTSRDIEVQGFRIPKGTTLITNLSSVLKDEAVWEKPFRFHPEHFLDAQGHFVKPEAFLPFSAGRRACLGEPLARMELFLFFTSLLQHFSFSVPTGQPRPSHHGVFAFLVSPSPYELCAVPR
T2 sequence (Q9Y5N1 whole entry): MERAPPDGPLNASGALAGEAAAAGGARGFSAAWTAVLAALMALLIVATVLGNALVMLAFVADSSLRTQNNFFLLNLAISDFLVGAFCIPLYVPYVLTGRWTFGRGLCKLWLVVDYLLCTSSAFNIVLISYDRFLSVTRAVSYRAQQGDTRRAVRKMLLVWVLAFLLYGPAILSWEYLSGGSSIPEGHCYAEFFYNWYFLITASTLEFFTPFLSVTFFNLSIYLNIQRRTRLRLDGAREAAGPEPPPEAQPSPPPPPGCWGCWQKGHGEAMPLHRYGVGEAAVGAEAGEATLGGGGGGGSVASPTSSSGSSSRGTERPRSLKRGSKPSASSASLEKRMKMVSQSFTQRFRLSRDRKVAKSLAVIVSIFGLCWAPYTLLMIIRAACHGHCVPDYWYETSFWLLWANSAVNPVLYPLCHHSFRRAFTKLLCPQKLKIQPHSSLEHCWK
Chain of Cytochrome P450 2C9 (P11712 whole entry): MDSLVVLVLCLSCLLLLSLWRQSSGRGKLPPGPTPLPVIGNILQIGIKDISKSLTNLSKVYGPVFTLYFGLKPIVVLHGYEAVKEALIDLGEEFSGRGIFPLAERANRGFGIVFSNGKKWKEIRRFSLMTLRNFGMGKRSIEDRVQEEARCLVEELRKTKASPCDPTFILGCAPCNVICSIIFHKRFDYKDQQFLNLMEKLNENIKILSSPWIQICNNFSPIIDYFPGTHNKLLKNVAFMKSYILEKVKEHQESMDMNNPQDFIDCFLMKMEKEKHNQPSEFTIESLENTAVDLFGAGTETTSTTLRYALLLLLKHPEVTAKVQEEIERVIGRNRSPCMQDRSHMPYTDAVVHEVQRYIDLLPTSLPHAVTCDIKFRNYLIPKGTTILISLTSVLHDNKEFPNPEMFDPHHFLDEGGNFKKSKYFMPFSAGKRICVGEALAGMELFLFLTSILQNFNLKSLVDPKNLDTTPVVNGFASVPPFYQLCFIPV
Chain of hERG (KCNH2) (Q12809 whole entry): as the sequence (Q12809 whole entry) above
Chain of Cytochrome P450 3A4 (P08684 whole entry): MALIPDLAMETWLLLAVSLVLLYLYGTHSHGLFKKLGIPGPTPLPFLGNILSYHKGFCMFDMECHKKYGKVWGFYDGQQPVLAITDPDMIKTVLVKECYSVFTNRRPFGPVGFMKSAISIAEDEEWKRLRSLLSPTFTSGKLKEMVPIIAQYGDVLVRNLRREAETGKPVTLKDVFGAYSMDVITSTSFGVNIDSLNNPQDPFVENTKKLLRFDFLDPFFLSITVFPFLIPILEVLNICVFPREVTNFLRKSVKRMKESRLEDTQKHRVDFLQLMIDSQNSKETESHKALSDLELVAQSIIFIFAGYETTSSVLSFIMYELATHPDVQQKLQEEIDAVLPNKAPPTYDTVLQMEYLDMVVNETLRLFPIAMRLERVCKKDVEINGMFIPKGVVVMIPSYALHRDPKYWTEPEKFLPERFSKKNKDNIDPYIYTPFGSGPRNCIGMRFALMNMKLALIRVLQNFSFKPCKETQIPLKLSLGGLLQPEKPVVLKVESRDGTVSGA

Row | SMILES | concentration at 1 h [1] | half-life [2] | Papp B→A [3] | IC50 [4] | concentration at 1 h [5] | Vd [6] | half-life [7] | Vd [8] | Activity [9] | Vd [10] | solubility [11] | bioavailability [12] | bioavailability [13] | inhibition at 10 µM [16] | Activity [17] | clearance [18] | Papp A→B [19] | clearance [20] | remaining at 0.5 h [25] | half-life [26] | other results
1 | N#Cc1cccc(Oc2ccc(C(=O)N3CCCN(C4CCC4)CC3)cn2)c1 | 960 nM | 0.8 h | 25 ×10⁻⁶ cm/s | > 10000 nM | 6020 nM | 4.4 L/kg | 0.9 h | 1.4 L/kg | Not Active | 1.6 L/kg | > 1000 µg/mL | 89% | 29% | 23% | 87% | 41 mL/min/kg | 77 ×10⁻⁶ cm/s | 21 mL/min/kg | 99% | 0.7 h | Activity [14]: 90%; Ki [15]: 1.8 nM; Activity [21]: Active; Kb [22]: 0.407 nM; Activity [23]: Active; concentration at 1 h [24]: 160 ng/mL; Activity [27]: Not Active; IC50 [28]: > 10000 nM; bioavailability [29]: 21%; solubility [30]: > 100000 µg/mL; remaining at 0.5 h [31]: 87%; clearance [32]: 97 mL/min/kg; fraction unbound [33]: 0.79; Ki [34]: 11 nM; Kb [35]: 9.55 nM; Activity [36]: Not Active
2 | O=C(c1ccc(Oc2ccc(F)cc2)nc1)N1CCCN(C2CCC2)CC1 [JNJ-39220675] | 2650 nM | 1.1 h | 36 ×10⁻⁶ cm/s | > 10000 nM | 1480 nM | 8.7 L/kg | 2.6 h | 3.5 L/kg | Not Active | 7.2 L/kg | > 5000 µg/mL | 50% | 28% | 0% | 94% | 49 mL/min/kg | 78 ×10⁻⁶ cm/s | 35 mL/min/kg | 87% | 1.2 h | Activity [37]: Active; concentration [38]: 956 nM; Activity [39]: Active; Activity [27]: Not Active; IC50 [28]: 3500 nM; bioavailability [29]: 28%; Activity [40]: Active; Activity [41]: 90%; solubility [30]: > 5000 µg/mL; remaining at 0.5 h [31]: 63%; clearance [32]: 94 mL/min/kg; fraction unbound [33]: 0.15; concentration [42]: 257 nM; concentration at 0.5 h [43]: 150 ng/mL; Activity [36]: Not Active

From ChEMBL document CHEMBL1177792, “Pre-clinical characterization of aryloxypyridine amides as histamine H3 receptor antagonists: identification of candidates for clinical development” (Bioorg Med Chem Lett, 2010)
